Measurements as given in publication PMC6151511, “Rational Design of Nucleoside–Bile Acid Conjugates Incorporating a Triazole Moiety for Anticancer Evaluation and SAR Exploration” (Molecules : A Journal of Synthetic Chemistry and Natural …, 2017).
Like-named read-outs stand apart in the source and are kept apart here.

Assays:
[1] = test system: Normal human skin fibroblast cells; design: method as in doi:10.1039/c3nj00513e; conditions: MTT; ref [6]; read-out: IC50 FIBRO; cited from earlier work
[2] = test system: HCT116 colon carcinoma; design: method as in doi:10.1039/c3nj00513e; conditions: MTT; ref [6]; cited from earlier work
[3] = test system: K562 leukemia cells; design: method as in doi:10.1039/c3nj00513e; conditions: MTT; ref [6]; cited from earlier work
[4] = test system: HCT116 colon carcinoma; assay: MTT assay, cell growth inhibition of HCT116 colon carcinoma; assay type: cell-based; conditions: for IC50: MTT, 72 h incubation, mean of three independent experiments ± SD, IC50 > 50 means inhibition <20% at 50 μM
Method: (§1) All conjugated compounds prepared via click chemistry and listed in Table 1 were evaluated in vitro for their cytotoxic activity against K562 leukemia cells and the colon cancer cell line HCT116. Normal human skin fibroblast cells were chosen as a control and cisplatin served as a reference compound. The cytotoxicity was evaluated using the MTT assay (details are reported in the Materials and Methods section). In all experiments the cell growth inhibition of K562 and HCT116 was determined for each compound at concentrations of 10, 25 and 50 μM after 72 h of treatment and up to 100 μM in the case of fibroblasts.
(§2) Cell growth inhibition assays were carried out using the leukemia cell line K562 and colon carcinoma HCT116. Cell lines were obtained from ATCC (Manassas, VA, USA) and maintained in RPMI 1640, supplemented with 10% fetal bovine serum (FBS), penicillin (100 Units mL^−1), streptomycin (100 μg mL^−1) and glutamine (2 mM) (complete medium); the pH of the medium was 7.2 and the incubation was performed at 37 °C in a 5% CO2 atmosphere. Adherent cells were routinely used at 70% of confluence and passaged every 3 days by treatment with 0.05% Trypsin-EDTA (Lonza, Walkersville, MD, USA). K562 cells were routinely fed every 3 days.
(§3) The antiproliferative activity of the compounds was tested using the 3-(4,5-dimethylthiozol-2-yl)2,5-diphenyltetrazolium bromide solution (MTT) assay. K562 and HCT116 were seeded in triplicate in 96-well trays respectively at the density of 5 × 10^3 and 10^4 in 50 μL of complete medium. Stock solutions (50 mM) of each compound were made in DMSO and diluted in complete medium to give final concentrations of 50, 25 and 10 μM. Untreated cells were placed in every plate as a negative control. The cells were exposed to the compounds, in 100 μL total volume, for 72 h.

[5] = test system: K562 cells; assay: Annexin V-FITC/PI apoptosis assay by flow cytometry; assay type: cell-based; conditions: 25 and 50 μM, 24 h
Method: In this study we also tested in vitro the nucleoside-alkyne derivatives (namely ALK-A, ALK-G, ALK-dG and ALK-dU) and the N3-BA building blocks (namely 3α-N3-CDC, 3α-N3-UDC, 3α-N3-TUDCA, 23-N3-nor-CDC and 23-N3-nor-UDC). […] (Table 1). To determine whether the antiproliferative activity induced by dA-nor-CDC was related to apoptosis, as previously reported for the corresponding dA-CDC conjugate, K562 cells were treated with compound dA-nor-CDC (25 and 50 μM) for 24 h, then assayed by flow cytometry analysis with Annexin V-FITC staining.
The percentage of apoptotic cells was assessed using the Annexin V assay (Clontech Laboratories, Inc. A Takara Bio Company, Mountain View, CA, USA). Propidium iodide (PI) was used to avoid necrotic cell detection (Annexin−/PI+). The drug-induced apoptotic rate (Annexin+/PI− and Annexin V+/PI+) was compared with the apoptosis in the absence of the drugs used as control (spontaneous apoptosis). K562 cells were cultured in RPMI + 10% FBS in a 6-weels plate for 24 h in the presence of compounds dA-nor-CDC at concentration of 50 and 25 μM. […] Incubation with annexin V for 15 min on ice in dark was directly followed by flow cytometric analysis of the cells with a FACScan (Becton Dickinson, San Jose, CA, USA) at 488 nm and quantified using the Cell Quest Pro software (Becton Dickinson).

[6] = test system: K562 leukemia cells; assay: MTT assay, cell growth inhibition of K562 leukemia cells; assay type: cell-based; conditions: for IC50: MTT, 72 h incubation, mean of three independent experiments ± SD, IC50 > 50 means inhibition <20% at 50 μM, read-out: IC50 K562
Method: as §1, §2, §3

[7] = test system: Normal human skin fibroblast cells; assay: MTT assay, cytotoxicity on normal fibroblasts (control); assay type: cell-based; conditions: up to 100 μM; for IC50: MTT, 72 h incubation, mean of three independent experiments ± SD, IC50 > 100 means inhibition <10% at 100 μM, read-out: IC50 FIBRO
Method: as §1, §3

[8] = Homo sapiens, Skin fibroblast, 72 h

| Structure (SMILES) | IC50 [1] [µM] | IC50 [2] [µM] | IC50 [3] [µM] | IC50 ([4]; Homo sapiens, HCT-116, 72 h) [µM] | IC50 ([6]; Homo sapiens, K562, 72 h) [µM] | IC50 [7, 8] [µM] | further results |
| --- | --- | --- | --- | --- | --- | --- | --- |
| COC(=O)CCC(C)[C@H]1CCC2C3C(CC[C@@]21C)[C@@]1(C)CC[C@@H](n2cc(CCCCC#Cc4nc5c(N)ncnc5n4[C@H]4C[C@H](O)[C@@H](CO)O4)nn2)CC1C[C@H]3O (stereo partly shown) [dA-CDC] | > 200 | > 200 | 8.5 ± 4 | – | – | – | – |
| CC(CCn1cc(CCCCC#Cc2nc3c(N)ncnc3n2[C@H]2C[C@H](O)[C@@H](CO)O2)nn1)[C@H]1CCC2C3C(CC[C@@]21C)[C@@]1(C)CC[C@@H](O)CC1C[C@H]3O (stereo partly shown) [dA-nor-CDC] | – | – | – | ≤ 25 | ≤ 25 | ~100 | IC50 [4]: 17 ± 2.5 µM; induction of apoptosis (in words) [5]: induced apoptosis in a dose dependent manner; IC50 [6]: 16.2 ± 2.2 µM; IC50 [7]: 91.5 ± 3.5 µM |
| C#CCCCCC#Cc1nc2c(N)ncnc2n1[C@H]1C[C@H](O)[C@@H](CO)O1 [ALK-dA, 8-(1,7-Octadynyl)-2′-deoxyadenosine] | > 100 | > 50 | > 50 | – | – | – | – |
| COC(=O)CCC(C)[C@H]1CCC2C3C(CC[C@@]21C)[C@@]1(C)CC[C@@H](n2cc(CCCCC#Cc4nc5c(N)ncnc5n4[C@H]4C[C@H](O)[C@@H](CO)O4)nn2)CC1C[C@@H]3O (stereo partly shown) [dA-UDC] | > 200 | > 200 | > 100 | – | – | – | – |
| CC(CCn1cc(CCCCC#Cc2nc3c(=O)[nH]c(N)nc3n2[C@@H]2O[C@H](CO)[C@@H](O)[C@H]2O)nn1)[C@H]1CCC2C3C(CC[C@@]21C)[C@@]1(C)CC[C@@H](O)CC1C[C@H]3O (stereo partly shown) [G-nor-CDC] | – | – | – | > 50 | > 50 | > 100 | – |
| CC(CCn1cc(CCCCC#Cc2nc3c(=O)[nH]c(N)nc3n2[C@@H]2O[C@H](CO)[C@@H](O)[C@H]2O)nn1)[C@H]1CCC2C3C(CC[C@@]21C)[C@@]1(C)CC[C@@H](O)CC1C[C@@H]3O (stereo partly shown) [G-nor-UDC] | – | – | – | > 50 | > 50 | > 100 | – |
| CC(CCC(=O)NCCS(=O)(=O)O)[C@H]1CCC2C3C(CC[C@@]21C)[C@@]1(C)CC[C@@H](N=[N+]=[N-])CC1C[C@@H]3O (stereo partly drawn) [3α-N3-TUDCA, (3α-Azido-7β-hydroxy-5β-cholan-24-oyl)-2-aminoethanesulfonic Acid] | – | – | – | > 50 | > 50 | > 100 | cytotoxicity against HCT116 (in words) ([4]; 10, 25 and 50 μM, 72 h): not be cytotoxic; cytotoxicity against K562 (in words) ([6]; 10, 25 and 50 μM, 72 h): not be cytotoxic; cytotoxicity towards fibroblast cells (in words) ([7]; 72 h): not be cytotoxic |
